Assay results published in US9085606B2, “Beta amino acid derivatives as integrin antagonists” (Saint Louis University, priority 2012, dated 2015).
pIC50: −log10 of the molar value.

Tests used:
[1] = target: T1, Recombinant human integrin α5β1 (Homo sapiens, UniProt P05556+P08648); assay: Solid Phase Receptor Assay for α5β1 Function; conditions: binding to fibronectin-coated plate; read-out: α5β1 SPRA IC50
T1 construct: purchased R&D Systems 3230-A5
Description: Solid Phase Receptor Assay for α5β1 Function.
Wells were washed 3 times with 150 μL TBS+ and 150 μl of blocking buffer (TBS+ with 1% bovine serum albumin, Sigma A7906) were added. The plate was incubated for 1 hr at 37° C. and then washed 3× with TBS+ buffer. […] Compounds were diluted 1:100 into the integrin solution and then 50 μL added to empty wells of the washed fibronectin-coated plate according to a standard template with each sample repeated in triplicate. After incubation for two hours at room temperature, the plate was washed 3× with 150 μL of TBS+ buffer. To each well, 50 μL of biotinylated anti-α5 antibody (R&D Systems, BAF1864) at 0.5 ug/mL in TBS+/0.1% BSA were added and the plate covered and incubated for 1 hr at room temperature. After washing the plate 3× with 150 μL of TBS+ buffer, 50 μL of streptavidin-conjugated horseradish peroxidase (R&D Systems, DY998) diluted in TBS+ blocking buffer were added to the wells and the plate incubated for 20 min at room temperature. The plate was washed 3× with TBS+ buffer followed by 50 μL of room temperature TMB substrate (Sigma, T444) added to each well and the plate incubated for 20 min at room temperature. The reaction was optionally stopped with 25 μL of Stop Solution (Sigma S5689). Plates were read by colorimetric detection at 650 nm wavelength using a Tecan Safire II plate reader.

[2] = target: T2, Recombinant human integrin αvβ8 (Homo sapiens, UniProt P06756+P26012); assay: Solid Phase Receptor Assay for αvβ8 Function; conditions: binding to LAP-coated plate; read-out: αvβ8 SPRA IC50
T2 construct: purchased R&D Systems 4135-AV
Description: Solid Phase Receptor Assay for αvβ8 Function.
Wells were washed 3 times with 150 μL TBS+ and 150 μL of blocking buffer (TBS+ with 1% bovine serum albumin, Sigma A7906) were added. The plate was incubated for 1 hr at 37° C. and then washed 3× with TBS+. […] Compounds were diluted 1:100 into the integrin solution and 50 μL added to empty wells of the washed LAP-coated plate according to a standard template with each sample repeated in triplicate. After incubation for two hours at room temperature, the plate was washed 3× with 150 μL of TBS+. To each well, 50 μL of biotinylated anti-αv antibody (R&D Systems, BAF1219) at 1 μg/mL in TBS+/0.1% BSA were added and the plate was covered and incubated for 1 hr at room temperature. After washing the plate 3× with 150 μL of TBS+ buffer, 50 μL of streptavidin-conjugated horseradish peroxidase (R&D Systems, DY998) diluted in TBS+ blocking buffer were added to the wells and the plate incubated for 20 min at room temperature. The plate was washed 3× with TBS+ followed by 50 μL of TMB substrate (Sigma T4444) added to each well and the plate incubated for 20 min at room temperature. The reaction was optionally stopped with 25 μL of Stop Solution (Sigma S5689). Plates were read by colorimetric detection at 650 nm wavelength using a Tecan Safire II plate reader.

T2 sequence (P06756 31-992 limits assumed): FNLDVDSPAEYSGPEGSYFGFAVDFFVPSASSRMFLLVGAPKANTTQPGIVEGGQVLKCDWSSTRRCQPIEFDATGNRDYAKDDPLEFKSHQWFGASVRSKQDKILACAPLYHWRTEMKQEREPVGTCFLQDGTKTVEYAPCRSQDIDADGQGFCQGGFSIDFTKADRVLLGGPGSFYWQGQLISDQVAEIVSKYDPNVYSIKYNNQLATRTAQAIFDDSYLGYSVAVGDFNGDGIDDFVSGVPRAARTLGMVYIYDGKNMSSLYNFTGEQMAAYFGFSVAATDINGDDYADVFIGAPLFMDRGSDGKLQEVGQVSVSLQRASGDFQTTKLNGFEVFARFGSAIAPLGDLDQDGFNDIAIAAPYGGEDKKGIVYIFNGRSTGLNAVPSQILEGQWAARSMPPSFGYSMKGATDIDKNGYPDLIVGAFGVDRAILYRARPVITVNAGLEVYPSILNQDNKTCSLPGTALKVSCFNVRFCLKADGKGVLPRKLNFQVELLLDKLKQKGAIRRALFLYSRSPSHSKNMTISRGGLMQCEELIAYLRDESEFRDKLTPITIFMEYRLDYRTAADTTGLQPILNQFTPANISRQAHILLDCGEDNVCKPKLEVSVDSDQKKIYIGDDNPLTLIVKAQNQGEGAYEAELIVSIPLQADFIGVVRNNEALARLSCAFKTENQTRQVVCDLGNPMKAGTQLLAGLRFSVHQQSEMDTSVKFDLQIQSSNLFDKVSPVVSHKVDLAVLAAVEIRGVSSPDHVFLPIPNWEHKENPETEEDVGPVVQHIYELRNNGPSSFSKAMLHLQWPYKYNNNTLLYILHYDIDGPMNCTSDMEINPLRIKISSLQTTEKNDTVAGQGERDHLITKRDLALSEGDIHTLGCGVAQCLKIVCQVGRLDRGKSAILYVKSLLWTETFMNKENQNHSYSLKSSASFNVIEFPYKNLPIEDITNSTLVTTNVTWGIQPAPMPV
T2 sequence (P26012 43-684 limits assumed): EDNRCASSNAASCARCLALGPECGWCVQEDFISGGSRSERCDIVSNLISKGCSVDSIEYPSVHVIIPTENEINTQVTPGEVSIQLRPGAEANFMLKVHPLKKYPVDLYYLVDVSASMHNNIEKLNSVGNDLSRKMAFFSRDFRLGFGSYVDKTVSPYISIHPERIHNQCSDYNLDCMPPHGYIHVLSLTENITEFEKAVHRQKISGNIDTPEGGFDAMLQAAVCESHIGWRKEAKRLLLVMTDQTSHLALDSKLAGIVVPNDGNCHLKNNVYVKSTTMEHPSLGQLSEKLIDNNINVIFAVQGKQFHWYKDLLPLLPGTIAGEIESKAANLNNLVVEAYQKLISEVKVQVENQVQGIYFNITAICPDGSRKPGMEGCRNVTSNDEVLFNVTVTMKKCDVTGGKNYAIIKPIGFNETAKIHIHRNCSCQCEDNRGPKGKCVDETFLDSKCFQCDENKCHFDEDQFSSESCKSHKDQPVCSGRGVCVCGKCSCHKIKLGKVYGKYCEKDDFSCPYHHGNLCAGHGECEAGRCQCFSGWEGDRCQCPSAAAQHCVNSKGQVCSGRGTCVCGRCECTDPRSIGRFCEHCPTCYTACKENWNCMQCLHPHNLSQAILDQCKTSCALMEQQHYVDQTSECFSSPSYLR
T1 sequence (P08648 42-995 limits assumed): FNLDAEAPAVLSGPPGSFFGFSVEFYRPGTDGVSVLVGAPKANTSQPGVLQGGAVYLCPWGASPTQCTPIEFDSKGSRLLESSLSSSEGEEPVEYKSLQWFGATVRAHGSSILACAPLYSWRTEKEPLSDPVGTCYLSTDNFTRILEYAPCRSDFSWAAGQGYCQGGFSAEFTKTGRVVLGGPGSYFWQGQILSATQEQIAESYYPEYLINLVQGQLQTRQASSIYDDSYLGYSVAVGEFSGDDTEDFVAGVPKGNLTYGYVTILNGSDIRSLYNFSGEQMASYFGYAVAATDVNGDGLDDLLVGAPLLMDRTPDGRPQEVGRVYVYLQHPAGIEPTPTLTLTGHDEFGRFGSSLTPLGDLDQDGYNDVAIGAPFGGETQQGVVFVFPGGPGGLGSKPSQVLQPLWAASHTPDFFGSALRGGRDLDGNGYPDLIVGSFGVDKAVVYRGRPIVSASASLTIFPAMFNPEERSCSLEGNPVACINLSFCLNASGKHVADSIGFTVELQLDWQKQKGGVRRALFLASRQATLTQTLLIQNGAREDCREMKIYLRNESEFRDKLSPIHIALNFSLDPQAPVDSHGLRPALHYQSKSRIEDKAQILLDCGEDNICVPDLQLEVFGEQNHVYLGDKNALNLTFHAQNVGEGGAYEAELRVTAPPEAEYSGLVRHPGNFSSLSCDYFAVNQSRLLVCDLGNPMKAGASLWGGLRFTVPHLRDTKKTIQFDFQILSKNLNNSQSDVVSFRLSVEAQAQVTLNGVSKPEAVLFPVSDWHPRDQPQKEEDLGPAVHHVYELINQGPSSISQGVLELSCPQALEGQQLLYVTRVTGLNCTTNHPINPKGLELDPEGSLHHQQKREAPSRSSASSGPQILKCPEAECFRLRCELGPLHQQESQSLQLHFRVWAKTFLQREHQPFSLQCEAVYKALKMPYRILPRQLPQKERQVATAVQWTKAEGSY
T1 sequence (P05556 21-728 limits assumed): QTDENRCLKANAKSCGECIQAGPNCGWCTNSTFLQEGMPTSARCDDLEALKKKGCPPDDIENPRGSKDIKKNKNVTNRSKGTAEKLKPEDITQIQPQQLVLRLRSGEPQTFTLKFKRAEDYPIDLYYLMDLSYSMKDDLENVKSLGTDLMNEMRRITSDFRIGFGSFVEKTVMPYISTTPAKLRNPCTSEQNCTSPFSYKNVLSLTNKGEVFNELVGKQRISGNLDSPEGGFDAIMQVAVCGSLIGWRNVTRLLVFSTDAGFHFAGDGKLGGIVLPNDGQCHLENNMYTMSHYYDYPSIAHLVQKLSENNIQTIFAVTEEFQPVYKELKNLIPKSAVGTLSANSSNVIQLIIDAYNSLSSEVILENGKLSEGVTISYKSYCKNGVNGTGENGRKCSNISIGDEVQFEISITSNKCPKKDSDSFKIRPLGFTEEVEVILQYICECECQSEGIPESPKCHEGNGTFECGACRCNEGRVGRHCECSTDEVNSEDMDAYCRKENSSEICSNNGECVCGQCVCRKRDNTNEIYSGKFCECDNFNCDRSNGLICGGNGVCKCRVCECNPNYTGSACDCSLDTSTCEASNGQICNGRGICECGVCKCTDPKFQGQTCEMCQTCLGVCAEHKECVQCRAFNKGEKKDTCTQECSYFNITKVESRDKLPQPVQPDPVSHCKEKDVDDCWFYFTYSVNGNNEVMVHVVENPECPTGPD

Structure (SMILES)	pIC50 [1]	pIC50 [2]
CC(C)(C)c1cc(Br)c(O)c([C@H](CC(=O)O)NC(=O)CNC(=O)c2cc(O)cc(NC3=NCC(O)CN3)c2)c1 (stereo partly drawn) [Example 1, (3S)-3-(3-bromo-5-(tert-butyl)-2-hydroxyphenyl)-3-(2-(3-hydroxy-5-((5-hydroxy-1,4,5,6-tetrahydropyrimidin-2-yl)amino)benzamido)acetamido)propanoic acid]	9.30	10.00
CC(C)(C)c1cc(Br)cc([C@H](CC(=O)O)NC(=O)CNC(=O)c2cc(O)cc(NC3=NCC(O)CN3)c2)c1O (stereo partly drawn) [Example 2, (3S)-3-(5-bromo-3-(tert-butyl)-2-hydroxyphenyl)-3-(2-(3-hydroxy-5-((5-hydroxy-1,4,5,6-tetrahydropyrimidin-2-yl)amino)benzamido)acetamido)propanoic acid]	9.30	10.00
CC(C)(O)c1cc(Br)cc([C@H](CC(=O)O)NC(=O)CNC(=O)c2cc(O)cc(NC3=NCC(O)CN3)c2)c1 (stereo partly drawn) [Example 3, (3S)-3-(3-bromo-5-(2-hydroxypropan-2-yl)phenyl)-3-(2-(3-hydroxy-5-((5-hydroxy-1,4,5,6-tetrahydropyrimidin-2-yl)amino)benzamido)acetamido)propanoic acid]	9.52	9.40
CC(C)(O)c1cc(Cl)cc([C@H](CC(=O)O)NC(=O)CNC(=O)c2cc(O)cc(NC3=NCC(O)CN3)c2)c1 (stereo partly drawn) [Example 4, (3S)-3-(3-chloro-5-(2-hydroxypropan-2-yl)phenyl)-3-(2-(3-hydroxy-5-((5-hydroxy-1,4,5,6-tetrahydropyrimidin-2-yl)amino)benzamido)acetamido)propanoic acid]	9.15	9.22
CC(C)(C)c1cc(Br)cc([C@H](CC(=O)O)NC(=O)CNC(=O)c2cccc(NC(=N)N)c2)c1 [Example 5, (S)-3-(3-bromo-5-(tert-butyl)phenyl)-3-(2-(3-guanidinobenzamido)acetamido) propanoic acid]	9.22	9.70
CC(C)(C)c1cc(Br)cc([C@H](CC(=O)O)NC(=O)CNC(=O)c2cncc(NC(=N)N)c2)c1 [Example 6, (S)-3-(3-bromo-5-(tert-butyl)phenyl)-3-(2-(5-guanidinonicotinamido)acetamido) propanoic acid]	9.00	9.52
CC(C)(C)c1cc(Br)cc([C@H](CC(=O)O)NC(=O)CNC(=O)c2cccc(NC3=NCCN3)c2)c1 [Example 7, (S)-3-(3-bromo-5-(tert-butyl)phenyl)-3-(2-(3-((4,5-dihydro-1H-imidazol-2-yl)amino)benzamido)acetamido)propanoic acid]	9.15	10.00
CC(C)(C)c1cc(Br)cc([C@H](CC(=O)O)NC(=O)CNC(=O)c2cncc(NC3=NCC(O)CN3)c2)c1 (stereo partly drawn) [Example 8, (3S)-3-(3-bromo-5-(tert-butyl)phenyl)-3-(2-(5-((5-hydroxy-1,4,5,6-tetrahydropyrimidin-2-yl)amino)nicotinamido)acetamido)propanoic acid]	9.40	10.00
CC(C)(C)c1cc(Br)cc([C@H](CC(=O)O)NC(=O)CNC(=O)c2cc(O)cc(NC3=NCCN3)c2)c1 [Example 9, (S)-3-(3-bromo-5-(tert-butyl)phenyl)-3-(2-(3-((4,5-dihydro-1H-imidazol-2-yl)amino)-5-hydroxybenzamido)acetamido)propanoic acid]	9.30	10.00
CC(C)(C)c1cc([C@H](CC(=O)O)NC(=O)CNC(=O)c2cncc(NC(=N)N)c2)cc(C(C)(C)C)c1 [Example 10, (S)-3-(3,5-di-tert-butylphenyl)-3-(2-(5-guanidinonicotinamido)acetamido)propanoic acid]	9.30	9.70
CC(C)(C#N)c1cc(Br)cc([C@H](CC(=O)O)NC(=O)CNC(=O)c2cc(O)cc(NC3=NCC(O)CN3)c2)c1 (stereo partly drawn) [Example 11, (3S)-3-(3-bromo-5-(2-cyanopropan-2-yl)phenyl)-3-(2-(3-hydroxy-5-((5-hydroxy-1,4,5,6-tetrahydropyrimidin-2-yl)amino)benzamido)acetamido)propanoic acid]	9.52	9.70
CC(C)(C)c1cc(C#N)cc([C@H](CC(=O)O)NC(=O)CNC(=O)c2cc(O)cc(NC3=NCC(O)CN3)c2)c1 (stereo partly drawn) [Example 12, (3S)-3-(3-(tert-butyl)-5-cyanophenyl)-3-(2-(3-hydroxy-5-((5-hydroxy-1,4,5,6-tetrahydro-pyrimidin-2-yl)amino)benzamido)acetamido)propanoic acid]	9.52	9.70
CC(C)(O)c1cc([C@H](CC(=O)O)NC(=O)CNC(=O)c2cc(O)cc(NC3=NCC(O)CN3)c2)cc(C(F)(F)F)c1 (stereo partly drawn) [Example 13, (3S)-3-(2-(3-hydroxy-5-((5-hydroxy-1,4,5,6-tetrahydropyrimidin-2-yl)amino)benzamido)acetamido)-3-(3-(2-hydroxypropan-2-yl)-5-(trifluoromethyl)phenyl)propanoic acid]	9.05	9.22
COCC(C)(C)c1cc(Cl)cc([C@H](CC(=O)O)NC(=O)CNC(=O)c2cc(O)cc(NC3=NCC(O)CN3)c2)c1 (stereo partly drawn) [Example 14, (3S)-3-(3-chloro-5-(1-methoxy-2-methylpropan-2-yl)phenyl)-3-(2-(3-hydroxy-5-((5-hydroxy-1,4,5,6-tetrahydropyrimidin-2-yl)amino)benzamido)acetamido)propanoic acid]	9.70	9.52
CC(C)(CO)c1cc(Cl)cc([C@H](CC(=O)O)NC(=O)CNC(=O)c2cc(O)cc(NC3=NCC(O)CN3)c2)c1 (stereo partly drawn) [Example 15, (3S)-3-(3-chloro-5-(1-hydroxy-2-methylpropan-2-yl)phenyl)-3-(2-(3-hydroxy-5-((5-hydroxy-1,4,5,6-tetrahydropyrimidin-2-yl)amino)benzamido)acetamido)propanoic acid]	9.40	9.52
COCC1(c2cc(Cl)cc([C@H](CC(=O)O)NC(=O)CNC(=O)c3cc(O)cc(NC4=NCC(O)CN4)c3)c2)CCOCC1 (stereo partly drawn) [Example 16, (3S)-3-(3-chloro-5-(4-(Methoxymethyl)tetrahydro-2H-pyran-4-yl)phenyl)-3-(2-(3-hydroxy-5-((5-hydroxy-1,4,5,6-tetrahydropyrimidin-2-yl)amino)benzamido)acetamido)propanoic acid]	9.30	9.40
O=C(O)C[C@H](NC(=O)CNC(=O)c1cc(O)cc(NC2=NCC(O)CN2)c1)c1cc(Cl)cc(C2(CO)CCOCC2)c1 (stereo partly drawn) [Example 17, (3S)-3-(3-chloro-5-(4-(hydroxymethyl)tetrahydro-2H-pyran-4-yl)phenyl)-3-(2-(3-hydroxy-5-((5-hydroxy-1,4,5,6-tetrahydropyrimidin-2-yl)amino)benzamido)acetamido)propanoic acid]	9.40	9.40
CC(C)(C)c1cc(-c2cccnc2)cc([C@H](CC(=O)O)NC(=O)CNC(=O)c2cc(O)cc(NC3=NCC(O)CN3)c2)c1 (stereo partly drawn) [Example 18, (3S)-3-(3-(tert-butyl)-5-(pyridin-3-yl)phenyl)-3-(2-(3-hydroxy-5-((5-hydroxy-1,4,5,6-tetrahydropyrimidin-2-yl)amino)benzamido)acetamido)propanoic acid]	9.40	9.52
CC(C)(C)c1cc(-c2cncnc2)cc([C@H](CC(=O)O)NC(=O)CNC(=O)c2cc(O)cc(NC3=NCC(O)CN3)c2)c1 (stereo partly drawn) [Example 19, (3S)-3-(3-(tert-butyl)-5-(pyrimidin-5-yl)phenyl)-3-(2-(3-hydroxy-5-((5-hydroxy-1,4,5,6-tetrahydropyrimidin-2-yl)amino)benzamido)acetamido)propanoic acid]	9.40	9.40
O=C(O)C[C@H](NC(=O)CNC(=O)c1cc(O)cc(NC2=NCC(O)CN2)c1)c1cc(Cl)cc(C2(CF)CCOCC2)c1 (stereo partly drawn) [Example 20, (3S)-3-(3-chloro-5-(4-(fluoromethyl)tetrahydro-2H-pyran-4-yl)phenyl)-3-(2-(3-hydroxy-5-((5-hydroxy-1,4,5,6-tetrahydropyrimidin-2-yl)amino)benzamido)acetamido)propanoic acid]	8.62	9.30
